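Grown in 96-well plates, cells were treated for 48 hours with each compound at five concentrations. Insufficient inhibition: endpoint recorded as highest concentration tested. GI50 = concentration required for 50% inhibition of growth.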 Calls of active or inactive are those of the source. Rule as the data show it: active = GI50 up to about 1.1 µM and inactive = higher.
How the values were obtained:
Assay in all cases: growth of human tumour cells (NCI), 48 h
[1] = tested on: 786-0
[2] = tested on: A549
[3] = tested on: ACHN
[4] = tested on: BT-549
[5] = tested on: CAKI-1
[6] = tested on: CCRF-CEM
[7] = tested on: COLO 205
[8] = tested on: DU-145
[9] = tested on: EKVX
[10] = tested on: HCC 2998
[11] = tested on: HCT-116
[12] = tested on: HCT-15
[13] = tested on: HL-60
[14] = tested on: HOP-62
[15] = tested on: HOP-92
[16] = tested on: HT-29
[17] = tested on: Hs-578T
[18] = tested on: IGROV-1
[19] = tested on: K562
[20] = tested on: KM12
[21] = tested on: LOX IMVI
[22] = tested on: M14
[23] = tested on: MCF7
[24] = tested on: MDA-MB-231
[25] = tested on: MDA-MB-435
[26] = tested on: MDA-N
[27] = tested on: MOLT-4
[28] = tested on: Malme-3M
[29] = tested on: NCI-H226
[30] = tested on: NCI-H23
[31] = tested on: NCI-H460
[32] = tested on: NCI-H522
[33] = tested on: NCI/ADR-RES
[34] = tested on: OVCAR-3
[35] = tested on: OVCAR-4
[36] = tested on: OVCAR-5
[37] = tested on: OVCAR-8
[38] = tested on: PC-3
[39] = tested on: RPMI-8226
[40] = tested on: RXF 393
[41] = tested on: SF-268
[42] = tested on: SF-295
[43] = tested on: SF-539
[44] = tested on: SK-MEL-28
[45] = tested on: SK-MEL-2
[46] = tested on: SK-MEL-5
[47] = tested on: SK-OV-3
[48] = tested on: SN12C
[49] = tested on: SNB-19
[50] = tested on: SNB-75
[51] = tested on: SR
[52] = tested on: SW-620
[53] = tested on: T47D
[54] = tested on: TK-10
[55] = tested on: U-251
[56] = tested on: UACC-257
[57] = tested on: UACC-62
[58] = tested on: UO-31
[59] = tested on: A498

## O=C1C=C(Br)c2c(Br)sc(Br)c21
[1]
  GI50: 2.53 µM (inactive)
[2]
  GI50: 24.5 µM (inactive)
[3]
  GI50: 4.62 µM (inactive)
[4]
  GI50: 6.76 µM (inactive)
[5]
  GI50: 12 µM (inactive)
[6]
  GI50: 1.59 µM (inactive)
[7]
  GI50: 4.83 µM (inactive)
[8]
  GI50: 14.9 µM (inactive)
[9]
  GI50: 18 µM (inactive)
[10]
  GI50: 13.8 µM (inactive)
[11]
  GI50: 6.05 µM (inactive)
[12]
  GI50: 5.61 µM
[13]
  GI50: 5.36 µM (inactive)
[14]
  GI50: 24.9 µM (inactive)
[15]
  GI50: 3 µM (inactive)
[16]
  GI50: 13.5 µM (inactive)
[17]
  GI50: 30.2 µM (inactive)
[18]
  GI50: 5.35 µM (inactive)
[19]
  GI50: 4.67 µM (inactive)
[20]
  GI50: 17 µM (inactive)
[21]
  GI50: 2.37 µM (inactive)
[22]
  GI50: 4.54 µM (inactive)
[23]
  GI50: 3.85 µM (inactive)
[24]
  GI50: 17.2 µM (inactive)
[25]
  GI50: 10 µM (inactive)
[26]
  GI50: 13.9 µM (inactive)
[27]
  GI50: 2.77 µM (inactive)
[28]
  GI50: 18.6 µM (inactive)
[29]
  GI50: 32.5 µM (inactive)
[30]
  GI50: 10.6 µM (inactive)
[31]
  GI50: 19.6 µM (inactive)
[32]
  GI50: 2.07 µM (inactive)
[33]
  GI50: 12.6 µM (inactive)
[34]
  GI50: 13.4 µM (inactive)
[35]
  GI50: 18 µM (inactive)
[36]
  GI50: 19.1 µM (inactive)
[37]
  GI50: 3.9 µM (inactive)
[38]
  GI50: 10.9 µM (inactive)
[39]
  GI50: 2.99 µM (inactive)
[40]
  GI50: 8.18 µM (inactive)
[41]
  GI50: 18.5 µM (inactive)
[42]
  GI50: 31.6 µM (inactive)
[43]
  GI50: 5.13 µM (inactive)
[44]
  GI50: 18.9 µM (inactive)
[45]
  GI50: 20.7 µM (inactive)
[46]
  GI50: 16.3 µM (inactive)
[47]
  GI50: 21.4 µM (inactive)
[48]
  GI50: 12.9 µM (inactive)
[49]
  GI50: 17.7 µM (inactive)
[50]
  GI50: 18.3 µM (inactive)
[51]
  GI50: 2.9 µM (inactive)
[52]
  GI50: 3.13 µM (inactive)
[53]
  GI50: 7.13 µM (inactive)
[54]
  GI50: 6.87 µM (inactive)
[55]
  GI50: 13.9 µM (inactive)
[56]
  GI50: 1.89 µM (inactive)
[57]
  GI50: 14 µM (inactive)
[58]
  GI50: 3.4 µM (inactive)

## CC(=O)C12C[C@](C#N)(N3CCCCCC3)C1C=Cc1ccccc12 (some centres undefined)
[1]
  GI50: > 100 µM (inactive)
[2]
  GI50: > 100 µM (inactive)
[3]
  GI50: > 100 µM (inactive)
[4]
  GI50: > 100 µM (inactive)
[5]
  GI50: > 100 µM (inactive)
[6]
  GI50: > 100 µM (inactive)
[7]
  GI50: > 100 µM (inactive)
[8]
  GI50: > 100 µM (inactive)
[9]
  GI50: > 100 µM (inactive)
[10]
  GI50: > 100 µM (inactive)
[11]
  GI50: > 100 µM (inactive)
[12]
  GI50: > 100 µM
[13]
  GI50: > 100 µM (inactive)
[14]
  GI50: > 100 µM (inactive)
[16]
  GI50: > 100 µM (inactive)
[17]
  GI50: > 100 µM (inactive)
[18]
  GI50: > 100 µM (inactive)
[19]
  GI50: > 100 µM (inactive)
[20]
  GI50: > 100 µM (inactive)
[22]
  GI50: > 100 µM (inactive)
[23]
  GI50: > 100 µM (inactive)
[24]
  GI50: > 100 µM (inactive)
[25]
  GI50: > 100 µM (inactive)
[26]
  GI50: > 100 µM (inactive)
[27]
  GI50: > 100 µM (inactive)
[29]
  GI50: > 100 µM (inactive)
[30]
  GI50: > 100 µM (inactive)
[31]
  GI50: > 100 µM (inactive)
[32]
  GI50: > 100 µM (inactive)
[33]
  GI50: > 100 µM (inactive)
[34]
  GI50: > 100 µM (inactive)
[35]
  GI50: > 100 µM (inactive)
[37]
  GI50: > 100 µM (inactive)
[38]
  GI50: > 100 µM (inactive)
[39]
  GI50: > 100 µM (inactive)
[40]
  GI50: > 100 µM (inactive)
[41]
  GI50: > 100 µM (inactive)
[42]
  GI50: > 100 µM (inactive)
[43]
  GI50: > 100 µM (inactive)
[44]
  GI50: > 100 µM (inactive)
[46]
  GI50: > 100 µM (inactive)
[47]
  GI50: > 100 µM (inactive)
[48]
  GI50: > 100 µM (inactive)
[49]
  GI50: > 100 µM (inactive)
[50]
  GI50: > 100 µM (inactive)
[51]
  GI50: > 100 µM (inactive)
[52]
  GI50: > 100 µM (inactive)
[53]
  GI50: > 100 µM (inactive)
[54]
  GI50: > 100 µM (inactive)
[55]
  GI50: > 100 µM (inactive)
[56]
  GI50: > 100 µM (inactive)
[57]
  GI50: > 100 µM (inactive)
[58]
  GI50: > 100 µM (inactive)

## CCCCCCCCCCCCCCCC(=O)Nc1ccn(C2CCC(COP(=O)(O)OCC3OC(n4cc(F)c(=O)[nH]c4=O)CC3OC(C)=O)O2)c(=O)n1 (centres undefined)
[1]
  GI50: 5.14 µM (inactive)
[59]
  GI50: 11.3 µM (inactive)
[2]
  GI50: 1.67 µM (inactive)
[3]
  GI50: 3.14 µM (inactive)
[4]
  GI50: 2.39 µM (inactive)
[5]
  GI50: 4.44 µM (inactive)
[6]
  GI50: 1.47 µM (inactive)
[7]
  GI50: 13.1 µM (inactive)
[8]
  GI50: 9.25 µM (inactive)
[9]
  GI50: 28.8 µM (inactive)
[10]
  GI50: 3.01 µM (inactive)
[11]
  GI50: 8.04 µM (inactive)
[12]
  GI50: 24.9 µM
[13]
  GI50: 11.2 µM (inactive)
[14]
  GI50: 5.06 µM (inactive)
[15]
  GI50: 5.62 µM (inactive)
[16]
  GI50: 11.2 µM (inactive)
[17]
  GI50: 29.2 µM (inactive)
[18]
  GI50: 20.5 µM (inactive)
[19]
  GI50: 6.15 µM (inactive)
[20]
  GI50: 16.6 µM (inactive)
[21]
  GI50: 7.1 µM (inactive)
[22]
  GI50: 13.7 µM (inactive)
[23]
  GI50: 2.28 µM (inactive)
[24]
  GI50: 29.4 µM (inactive)
[25]
  GI50: 15.5 µM (inactive)
[26]
  GI50: 19.6 µM (inactive)
[27]
  GI50: 9.31 µM (inactive)
[28]
  GI50: 15.6 µM (inactive)
[29]
  GI50: 30 µM (inactive)
[30]
  GI50: 8.18 µM (inactive)
[31]
  GI50: 0.531 µM (active)
[32]
  GI50: 12.3 µM (inactive)
[33]
  GI50: 16.7 µM (inactive)
[34]
  GI50: 19.4 µM (inactive)
[35]
  GI50: 14.1 µM (inactive)
[36]
  GI50: 34 µM (inactive)
[37]
  GI50: 10.6 µM (inactive)
[38]
  GI50: 15.5 µM (inactive)
[39]
  GI50: 2.88 µM (inactive)
[40]
  GI50: 22.4 µM (inactive)
[41]
  GI50: 1.45 µM (inactive)
[42]
  GI50: 6.71 µM (inactive)
[43]
  GI50: 1.03 µM (active)
[44]
  GI50: 17.9 µM (inactive)
[45]
  GI50: 23.1 µM (inactive)
[46]
  GI50: 13.5 µM (inactive)
[47]
  GI50: 29.2 µM (inactive)
[48]
  GI50: 13.1 µM (inactive)
[49]
  GI50: 3.66 µM (inactive)
[50]
  GI50: 14.9 µM (inactive)
[52]
  GI50: 16.9 µM (inactive)
[53]
  GI50: 18.3 µM (inactive)
[54]
  GI50: 24.4 µM (inactive)
[55]
  GI50: 12.1 µM (inactive)
[56]
  GI50: 14.7 µM (inactive)
[57]
  GI50: 10.7 µM (inactive)
[58]
  GI50: 7.48 µM (inactive)

Source: ChEMBL document CHEMBL1201862, “PubChem BioAssay data set” (2004)
